PubChem BioAssay AID1918930 (Molecular Pharmacology Branch, DTP, NCI, 2023)

Test system: 233499-124-R-J3-PDC complex spheroid viability, % test/control
Assay: Anticancer human tumor 233499-124-R-J3-PDC patient-derived colon adenocarcinoma cell line growth inhibition
Conditions: for IC50: curve of first compound; for viability, T/C: stronger effect = lower value; active means viability on the fitted dose curve at most 10% of control; inactive means the rest
Source text: Multicellular complex tumor spheroid response to LSD1 Inhibitor Iadademstat in combination with a variety of drugs and investigational agents in selected tumor cell lines
The current study was undertaken to assess response to LSD1 inhibitors in combination with standard-of-care drugs and investigational agents in solid tumor complex spheroid models as well as in the K-562 leukemia. Complex spheroids include a stromal component modeled by human endothelial cells (HUVEC) and fibroblasts modeled by human mesenchymal stem cells (MSCs). The concentration ranges selected for each drug and investigational agent were based upon clinically achievable concentrations if the clinical Cmax of the agent was known.
Compounds. The drugs and investigational agents used in this study are listed on Table 1. All of the agents used, including staurosporine (NSC755774) and gemcitabine (NSC613327), were obtained from the Developmental Therapeutics Program, NCI. FDA-approved anticancer drugs are available from the NCI at http://dtp.nci.nih.gov/branches/dscb/oncology_drugset_explanation.html. Drugs and investigational agents were >95% pure by proton nuclear magnetic resonance (NMR) and liquid chromatography/mass spectrometry (LC/MS). Stock solutions were prepared at 400x in DMSO, stored at -70 degrees C, and diluted in fresh medium prior to their use. The final concentration of DMSO in cell culture wells never exceeded 0.25% (v/v). The FDA-approved anticancer drug set is available from the Developmental Therapeutics Program at https://dtp.cancer.gov/organization/dscb/obtaining/available_plates.htm. All drugs and investigational agents were tested over a range starting from a high concentration at or near the clinical Cmax and decreasing in half-log increments. If the clinical Cmax for an agent had not been determined, the highest concentration tested was 10 microM.
Cell Lines. The patient-derived cancer cell (PDC) lines: 292921-168-R-J2-PDC, K24384-001-R-PDC, and 521955-158-R2-J5-PDC pancreatic carcinomas, 556581-035-R-J1 ovarian carcinoma, 324938-238-R-J1-PDC, 855422-203-R-J1-PDC and 883617-216-R-J1-PDC urothelial bladder carcinomas, 743489-274-T-PDC renal cell carcinoma, 138582-R-J1 Merkel cell tumor, K60290-347-R-J1 and K57222-313-R-J1-PDC glioblastomas, 653999-131-R-J2-PDC, LG0703-F948-PDC, and 349418-098-R-PDC non-small cell lung carcinomas, 885512-296-R-J2-PDC, 171881-019-R-J1-PDC breast carcinomas and 186277-243-T-J2-PDC and 233499-124-R-J2-PDC colon carcinomas were obtained from the NCI Patient-Derived Models Repository (PDMR, https://pdmr.cancer.gov). The established cell lines NCI/ADR-RES (RRID:CVCL_14520 and OVCAR-5 (RRID:CVCL_1628) ovarian carcinomas, 786-O (RRID:CVCL_1051) and A498 (RRID:CVCL_A498) renal cell carcinoma, NCI-H211 (ATCC, cat. CRL-5824; RRID:CVCL_1529), NCI-H196 (ATCC, cat. CRL-5823, RRID:CVCL_1509), SW 1271 (ATCC, cat. CRL-2177, RRID:CVCL_1716) and NCI-H1876 (ATCC, cat. CRL-5902, RRID:CVCL_1503) small cell lung carcinomas, MDA-MB-231 (RRID:CVCL_0062) and MDA-MB-468 (RRID:CVCL_0419)breast carcinomas (10-12). Pooled donor human umbilical vein endothelial cells (HUVEC, Lonza, cat. CC-2519) and human mesenchymal stem cells (hMSC, Lonza, cat. PT-2501) were purchased from Lonza (Walkersville, MD).
Cell Culture. All cells were maintained in an incubator at 37 degrees C and 5% CO2 with 95% humidity. The PDC lines were cultured according to standard operating procedures established by the NCI PDMR (https://pdmr.cancer.gov). Briefly all PDCs were thawed and cultured in Matrigel-coated flasks prepared with a working solution of 1X Ham's F-12 nutrient mix, without supplementation (Invitrogen, Waltham, MA, cat. 11765054), 100 U/mL penicillin-streptomycin (Invitrogen, cat. 15140122), and 2.5% Matrigel (Corning Inc., Corning, NY, cat. 354248) for the first three passages. […]

[1] = second compound 0.1 µM, first compound 0.00949 µM
[2] = second compound 0.1 µM, first compound 0.03 µM
[3] = second compound 0.1 µM, first compound 0.0949 µM
[4] = second compound 0.1 µM, first compound 0.3 µM
[5] = second compound 0.316 µM, first compound 0.00949 µM
[6] = second compound 0.316 µM, first compound 0.03 µM
[7] = second compound 0.316 µM, first compound 0.0949 µM
[8] = second compound 0.316 µM, first compound 0.3 µM
[9] = second compound 1 µM, first compound 0.00949 µM
[10] = second compound 1 µM, first compound 0.03 µM
[11] = second compound 1 µM, first compound 0.0949 µM
[12] = second compound 1 µM, first compound 0.3 µM
[13] = second compound 3.16 µM, first compound 0.00949 µM
[14] = second compound 3.16 µM, first compound 0.03 µM
[15] = second compound 3.16 µM, first compound 0.0949 µM
[16] = second compound 3.16 µM, first compound 0.3 µM
[17] = second compound 10 µM, first compound 0.00949 µM
[18] = second compound 10 µM, first compound 0.03 µM
[19] = second compound 10 µM, first compound 0.0949 µM
[20] = second compound 10 µM, first compound 0.3 µM
[21] = second compound 0.1 µM, first compound 0.949 µM
[22] = second compound 0.1 µM, first compound 3 µM
[23] = second compound 0.316 µM, first compound 0.949 µM
[24] = second compound 0.316 µM, first compound 3 µM
[25] = second compound 1 µM, first compound 0.949 µM
[26] = second compound 1 µM, first compound 3 µM
[27] = second compound 3.16 µM, first compound 0.949 µM
[28] = second compound 3.16 µM, first compound 3 µM
[29] = second compound 10 µM, first compound 0.949 µM
[30] = second compound 10 µM, first compound 3 µM
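Further: spheroids exposed to agents for one week before readout.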

CCc1c2c(nc3ccc(O)cc13)-c1cc3c(c(=O)n1C2)COC(=O)[C@]3(O)CC + NC1CCC(NC2CC2c2ccccc2)CC1
25 nM: IC50 (second compound 0.1 µM)
29.4 nM: IC50 (second compound 1 µM)
27.5 nM: IC50 (second compound 0.316 µM)
inactive: viability, T/C (second compound 0.1 µM, first compound 0.000949 µM) 80.5% | viability, T/C (second compound 0.1 µM, first compound 0.003 µM) 99.5% | viability, T/C [1] 89.6% | viability, T/C [2] 42.6% | viability, T/C [3] 19.8% | viability, T/C [4] 20.4% | viability, T/C (second compound 0.316 µM, first compound 0.000949 µM) 99.6% | viability, T/C (second compound 0.316 µM, first compound 0.003 µM) 92.2% | viability, T/C [5] 107% | viability, T/C [6] 46% | viability, T/C [7] 28.6% | viability, T/C [8] 12.8% | viability, T/C (second compound 1 µM, first compound 0.000949 µM) 72.6% | viability, T/C (second compound 1 µM, first compound 0.003 µM) 89.5% | viability, T/C [9] 95.6% | viability, T/C [10] 49.3% | viability, T/C [11] 16.8% | viability, T/C [12] 13.2% | viability, T/C (second compound 3.16 µM, first compound 0.000949 µM) 90.8% | viability, T/C (second compound 3.16 µM, first compound 0.003 µM) 92.1% | viability, T/C [13] 99.7% | viability, T/C [14] 56% | viability, T/C [15] 28.5% | viability, T/C [16] 18.2% | viability, T/C (second compound 10 µM, first compound 0.000949 µM) 72.3% | viability, T/C (second compound 10 µM, first compound 0.003 µM) 78.3% | viability, T/C [17] 93.2% | viability, T/C [18] 58.8% | viability, T/C [19] 27.1% | viability, T/C [20] 22.9%
40.5 nM: IC50 (second compound 10 µM)
37.1 nM: IC50 (second compound 3.16 µM)

O=C(C=Cc1cccc(S(=O)(=O)Nc2ccccc2)c1)NO + NC1CCC(NC2CC2c2ccccc2)CC1
> 3000 nM: IC50 (second compound 0.1 µM) | IC50 (second compound 0.316 µM) | IC50 (second compound 3.16 µM)
3000 nM: IC50 (second compound 1 µM) | IC50 (second compound 10 µM)
inactive: viability, T/C [1] 105% | viability, T/C [2] 115% | viability, T/C [3] 122% | viability, T/C [4] 134% | viability, T/C [21] 51.9% | viability, T/C [22] 110% | viability, T/C [5] 101% | viability, T/C [6] 108% | viability, T/C [7] 128% | viability, T/C [8] 120% | viability, T/C [23] 47.7% | viability, T/C [24] 106% | viability, T/C [9] 81.3% | viability, T/C [10] 105% | viability, T/C [11] 108% | viability, T/C [12] 109% | viability, T/C [25] 44.7% | viability, T/C [26] 78.8% | viability, T/C [13] 101% | viability, T/C [14] 101% | viability, T/C [15] 102% | viability, T/C [16] 116% | viability, T/C [27] 38.5% | viability, T/C [28] 89.3% | viability, T/C [17] 79.2% | viability, T/C [18] 85.5% | viability, T/C [19] 78.8% | viability, T/C [20] 117% | viability, T/C [29] 32.9% | viability, T/C [30] 76.3%

Nc1ccccc1NC(=O)c1ccc(CNC(=O)OCc2cccnc2)cc1 + NC1CCC(NC2CC2c2ccccc2)CC1
525 nM: IC50 (second compound 3.16 µM)
active: viability, T/C [22] 2.31% | viability, T/C [24] 5.83% | viability, T/C [25] 8.94% | viability, T/C [26] 4.76% | viability, T/C [28] 4.56% | viability, T/C [30] 3.56%
523 nM: IC50 (second compound 1 µM)
463 nM: IC50 (second compound 10 µM)
579 nM: IC50 (second compound 0.316 µM)
inactive: viability, T/C [1] 112% | viability, T/C [2] 93.4% | viability, T/C [3] 106% | viability, T/C [4] 65.8% | viability, T/C [21] 24% | viability, T/C [5] 92.2% | viability, T/C [6] 91.8% | viability, T/C [7] 101% | viability, T/C [8] 91.2% | viability, T/C [23] 19.1% | viability, T/C [9] 81.9% | viability, T/C [10] 99.9% | viability, T/C [11] 92% | viability, T/C [12] 88.4% | viability, T/C [13] 78.8% | viability, T/C [14] 89.5% | viability, T/C [15] 76.7% | viability, T/C [16] 82.1% | viability, T/C [27] 16.5% | viability, T/C [17] 74.8% | viability, T/C [18] 92.3% | viability, T/C [19] 75.2% | viability, T/C [20] 73.4% | viability, T/C [29] 11.5%
476 nM: IC50 (second compound 0.1 µM)
